Values after ≈ are worked out from the molar mass of the structure shown. Read-outs that look alike come from different tables or passages of the source.
Experiments:
[1] = system: resistant green rice leafhopper (collected at Nakagawara); assay: Test 3: Effect on Resistant Green Rice Leafhopper; format: in vivo, Nephotettix cincticeps Uhler; conditions: Nephotettix cincticeps, 24 h, read-out: Mortality (%) Green Rice Leafhopper Collected at Nakagawara
Outline: (§1)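 Rice seedlings (2–3 leaves) sprayed with emulsifiable-concentrate dilutions at 100 or 20 ppm, 3 ml per pot, air-dried, then infested with 10 female adults per pot. Mortality counted after 24 h and averaged over three pots.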

[2] = system: sensitive green rice leafhopper (collected at Chigasaki); assay: Test 3: Effect on Sensitive Green Rice Leafhopper; format: in vivo; conditions: Nephotettix cincticeps, female adults, 24 hours
Outline: as §1

[3] = Test 8: Fish Toxicity; format: in vivo; conditions: carp, water, carps, concentration at which 1/2 of the test fishes were killed, read-out: Fish Toxicity, TLm48
Protocol: A water tank having a width of 60 cm, a length of 30 cm and a height of 40 cm was filled with water, and 10 yearling carps having a body length of about 5 cm were set free in the tank and adapted to the environment in the tank. A test compound was applied so that the concentration in water was 10, 1, or 0.1 ppm. After 48 hours, the numbers of killed and living carps were counted and the influences on the fishes were examined.

[4] = system: green peach aphids; assay: Test 5: Effect on green peach Aphid; format: in vivo; conditions: Myzus persicae, 24 hours, mortality class, read-out: Insecticidal Activity
Protocol: To a mixture of 20 parts of the compound of the present invention and 20 parts of Sorpol SM-200 (registered trademark for the product supplied by Toho Chemical Industrial Co., Ltd.) was added 60 parts of xylol, and the mixture was sufficiently blended. The obtained emulsifiable concentrate was diluted at a predetermined concentration with distilled water, and the obtained dilution was used.
Seedlings (having 3 to 4 leaves) of an eggplant grown on a pot were inoculated with green peach aphids and the insects were allowed to grow. The number of the insects was counted. A chemical dilution having a concentration of 100 ppm, prepared in the same manner as described in Test 1, was applied with a spray gun at a rate of 10 ml per pot. Then, the pot was placed in a glass green house. After 24 hours, the number of living insects was counted and the mortality was calculated.
The test was made on three pots, and the average value was calculated. In Table 6, mark "A" indicates a mortality higher than 95%, mark "B" indicates a mortality of 80 to 95%, mark "C" indicates a mortality of 50 to 80%, and mark "D" indicates a mortality lower than 50%.

[5] = Test 9: Toxicity Test (acute oral, mice); conditions: mouse, in vivo, po
Outline: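 Compound dissolved or suspended in corn oil was given orally to male mice of 19–23 g body weight, at 0.2 ml per 10 g. Deaths and effects were recorded after 7 days.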

[6] = system: third-instar larvae of diamond back moth; assay: Test 4: Effect on Diamond Back Moth; format: in vivo; conditions: Plutella xylostella, 24 hours
Outline: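 Emulsifiable concentrate diluted in water to 100 or 20 ppm and sprayed at 3 ml per cup onto cabbage leaves holding 10 third-instar diamondback moth larvae. Dead and living larvae counted after 24 h; mortality averaged over three cups.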

[7] = system: two-spotted spider mite; assay: Test 6: Effect on Two-Spotted Spider mite adults; format: in vivo; conditions: Tetranychus urticae; 500 ppm; adults; 24 hours; read-out: Mortality (%)
Outline: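 Kidney bean leaf discs (15 mm) on wet cotton, each holding 10 adult mites, sprayed with 3 ml of a 500 ppm dilution of an emulsifiable concentrate. Kept at 25° C; dead adults counted after 24 hours to give mortality, averaged over three discs.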

[8] = system: German cockroach; assay: Test 7: Effect on German Cockroach; format: in vivo; conditions: Blattella germanica, male adults, 24 hours, agonized and killed; for mortality at 10 mg/m2: 10 mg/m^2; for mortality at 50 mg/m2: 50 mg/m^2
Outline: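 Dish bottoms were treated with 50 or 10 mg/m^2 of test compound and air-dried, then 10 male adult cockroaches were released per dish and held at 25° C. Agonized and killed adults were counted after 24 hours, averaged over two dishes.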

[9] = system: Second-instar and fifth-instar larvae of tobacco cutworm; assay: Test 2: Tobacco Cutworm Larva Dipping Test; format: in vivo
[10] = 20 ppm, second-instar larvae, 24 hours, read-out: Mortality (%) Second-Instar Larvae
[11] = 100 ppm, second-instar larvae, 24 hours, read-out: Mortality (%) Second-Instar Larvae
[12] = topical, 24 h, read-out: Mortality (%) Fifth-Instar Larvae

| Compound | mortality at 20 ppm [1] | mortality at 100 ppm [1] | mortality at 20 ppm [2] | mortality at 100 ppm [2] | LC50 at 48 h [3] | mortality at 100 ppm [4] | LD50 at 168 h [5] | mortality at 20 ppm [6] | mortality at 100 ppm [6] | mortality at 500 ppm [7] | mortality at 10 mg/m2 [8] | mortality at 50 mg/m2 [8] | mortality at 20 ppm [9, 10] | mortality at 100 ppm [9, 11] | mortality at 20 ppm [9, 12] | mortality at 100 ppm [9, 12] |
| --- | --- | --- | --- | --- | --- | --- | --- | --- | --- | --- | --- | --- | --- | --- | --- | --- |
| CC(C)(COCc1ccc(F)c(Oc2ccccc2)c1)c1cc(Cl)cc(Cl)c1 [Compound 48, 3-Phenoxy-4-fluorobenzyl 2-(3,5-dichlorophenyl)-2-methylpropyl ether] | 100% | 100% | 100% | 100% | > 1 µg/mL | 80 to 95% | > 500 mg/kg |  |  |  |  |  |  |  |  |  |
| CC(C)(COCc1ccc(Cl)c(Oc2ccccc2)c1)c1ccc(Cl)cc1 [Compound 3, 3-Phenoxy-4-chlorobenzyl 2-(4-chlorophenyl)-2-methylpropyl ether] | 90% | 100% | 80% | 100% | > 10 µg/mL | > 95% | > 500 mg/kg | 100% | 100% | 90% | 90% | 100% |  |  |  |  |
| CC(C)(COCc1ccc(F)c(Oc2ccccc2)c1)c1ccc(Oc2ccccc2)cc1 [Compound 52, 3-Phenoxy-4-fluorobenzyl 2-(4-phenoxyphenyl)-2-methylpropyl ether] |  |  |  |  | > 1 µg/mL | > 95% |  |  |  | 100% | 100% | 100% |  |  |  |  |
| CC(C)(COCc1ccc(F)c(Oc2ccccc2)c1)c1ccc(Br)cc1 [Compound 18, 3-Phenoxy-4-fluorobenzyl 2-(4-bromophenyl)-2-methylpropyl ether] |  |  |  |  | > 0.1 µg/mL | > 95% | > 500 mg/kg | 100% | 100% | 100% | 100% | 100% |  |  |  |  |
| CCOc1ccc(C(C)(C)COCc2ccc(F)c(Oc3ccc(Br)cc3)c2)cc1 [Compound 68, 3-(4-Bromophenoxy)-4-fluorobenzyl 2-(4-ethoxyphenyl)-2-methylpropyl ether] | 100% | 100% | 100% | 100% | > 1 µg/mL | > 95% | > 500 mg/kg | 100% | 100% |  |  |  |  |  |  |  |
| CC(C)(COCc1ccc(F)c(Oc2ccc(F)cc2)c1)c1ccc(Cl)cc1 [Compound 1, 3-(4-Fluorophenoxy)-4-fluorobenzyl 2-(4-chlorophenyl)-2-methylpropyl ether] |  |  |  |  | ~1 µg/mL (≈ 2.48 µM) | > 95% | > 500 mg/kg | 100% | 100% | 100% | 100% | 100% | 80% | 90% | 70% | 80% |
| CCC(COCc1ccc(F)c(Oc2ccccc2)c1)c1ccc(Cl)cc1 (stereo not drawn) [Compound 6, 3-Phenoxy-4-fluorobenzyl 2-(4-chlorophenyl)-butyl ether] | 100% | 100% | 100% | 100% | > 1 µg/mL | > 95% | > 500 mg/kg | 100% | 100% | 100% | 100% | 100% | 90% | 100% | 85% | 100% |
| CC(C)(CSCc1ccc(F)c(Oc2ccccc2)c1)c1ccc(Cl)cc1 [Compound 4, 3-Phenoxy-4-fluorobenzyl 2-(4-chlorophenyl)-2-methylpropyl thioether] |  |  |  |  | > 0.5 µg/mL | > 95% | > 500 mg/kg | 90% | 100% | 90% | 90% | 100% |  |  |  |  |
| Cc1ccc(C(C)(C)COCc2ccc(F)c(Oc3ccccc3)c2)cc1 [Compound 28, 3-phenoxy-4-fluorobenzyl 2-(4-methylphenyl)-2-methylpropyl ether] | 100% | 100% | 100% | 100% | > 1 µg/mL | > 95% |  | 100% | 100% |  | 100% | 100% |  |  |  |  |
| CC(C)(COCc1ccc(F)c(Oc2ccccc2)c1)c1ccc(-c2ccccc2)cc1 [Compound 61, 3-Phenoxy-4-fluorobenzyl 2-(4-biphenyl)-2-methylpropyl ether] | 100% | 100% | 100% | 100% | > 1 µg/mL | > 95% | > 500 mg/kg |  |  | 100% | 85% | 100% |  |  |  |  |
| CCCCCOc1ccc(C(C)(C)COCc2ccc(F)c(Oc3ccccc3)c2)cc1 [Compound 38, 3-Phenoxy-4-fluorobenzyl 2-(4-n-pentyloxyphenyl)-2-methylpropyl ether] |  |  |  |  | > 1 µg/mL | > 95% |  | 100% | 100% | 100% | 100% | 100% |  |  |  |  |
| CC(C)(COCc1ccc(F)c(Oc2ccccc2)c1)c1ccccc1 [Compound 2, 3-Phenoxy-4-fluorobenzyl 2-phenyl-2-methylpropyl ether] | 100% | 100% | 100% | 100% | > 1 µg/mL | > 95% | > 500 mg/kg | 100% | 100% |  | 100% | 100% | 100% | 100% | 100% | 100% |
| CC(C)(COCc1ccc(F)c(Oc2ccc(Br)cc2)c1)c1ccc(Cl)cc1 [Compound 15, 3-(4-bromophenoxy)-4-fluorobenzyl 2-(4-chlorophenyl)-2-methylpropyl ether] |  |  |  |  | > 10 µg/mL | > 95% | > 500 mg/kg | 100% | 100% | 100% | 100% | 100% | 100% | 100% | 100% | 100% |
| CC(C)(COCc1ccc(F)c(Oc2ccccc2)c1)c1ccc(Cl)cc1 [Compound 10, 3-phenoxy-4-fluorobenzyl 2-(4-chlorophenyl)-2-methylpropyl ether] | 100% | 100% | 100% | 100% | > 0.1 µg/mL | > 95% | > 500 mg/kg | 100% | 100% | 100% | 100% | 100% | 100% | 100% | 100% | 100% |

From US4599362A, “2-aryl-ethyl ether derivatives and insecticidal and acaricidal agents containing said derivatives” (priority 1980, dated 1986)
